# In patent US7132287B2, “Method for neural stem cell differentiation using 5HT-1A agonists” (Psychiatric Genomics, Inc., priority 2001, dated 2006):
# “And” between values parts separate entries of the source, which are not always exact repeats. Equal entries are not always repeated.
# Test system: cortical neural stem cells
# Assay: Neuronal differentiation of cortical neural stem cells (β tubulin III / TuJ-1 immunofluorescence)
# Type: cell-based, rat
# Details: 1 μM Buspirone alone, 6 days
# Description: Isolation of cortical and striatal stem cells. Timed pregnant Sprague Dawley rats obtained from Taconic at embryonic age E14-E15 were sacrificed as described above and the uterus removed and placed in ice cold PBS in a 10 cm petridish. After rinsing the uterus in PBS, embryos were removed from the uterus, rinsed in PBS and collected in cold HBSS (buffered with HEPES and sodium bicarbonate) in a 10 cm petridish and placed on ice.
# The cortex and striatum was dissected under a microscope and collected in a 15 ml tube of HBSS, on ice. Removal of meninges is not possible at this age, and no attempt was made to do so. If the dissected tissue was in large enough chunks and settle to the bottom of the tube, no centrifugation was performed. Alternatively, the tube was centrifuged at 1000 rpm for 5 minutes to pellet the tissue. Following centrifugation, the 15 ml tube containing the tissue was sprayed with 70% ethanol and taken into the sterile hood.
# The HBSS was aspirated and replaced with 10 ml of DMEM/F12. The tissue was collected at the bottom of the tube by gravity or centrifugation, medium was aspirated, and 1 ml of DMEM/F12 was to the tissue. Cells were dissociated by trituration as described above, followed by addition of 5 ml of DMEM/F12 and a second round of trituration. […] The tubes were placed standing 5–10 minutes in the hood to allow larger particles and meninges to settle. While the meninges were settling, a cell count was made. 10 μl of the cell suspension is diluted with trypan blue and counted in a hemocytometer. Cells were counted in the four outer chambers with the larger squares, and cell count calculated assuming that the volume enclosed in each of the chambers was […].
# Plating, expansion and passaging of cortical and striatal stem cells A generous amount of the triturated cell suspension was left in the original 15 ml tube to avoid fibroblast contamination in cultures. About 4–5 ml of the 6 ml of cells suspension was used for plating. Cells were plated at a concentration of approximately 1×10^6 per 10 cm dish. This culture is designated P0 (passage 0).
# Following plating cells were expanded for about 3–4 days. The cultures were never permitted to reach more than 70% confluency. Cultures were then passaged as follows: 5 ml of HBSS was added to each 10 cm dish and the cells incubated at 37° C. for 15–45 minutes, or until sufficient numbers of the stem cells were rounded up. It is not expected that all cells in the culture will round up as there are several cell types in the culture at P0. The pH of the HBSS should be neutral at all times during this incubation. Cells were then removed from the dish by pipetting with a 5 ml pipette, or by scraping with a policeman, collected in a 15 or 50 ml conical tube, and centrifuged at 1000 g for 5 minutes. Cells were gently re-suspended in medium, counted, and plated at a density of about 1×10^6 per 10 cm dish.
# Drug treatments. Stem cells obtained as described above were treated with drugs and subjected to differentiation protocols in the second passage. Cells were plated at a density of 1×10^4 cells per well of a 12-well petridish (Falcon).
# Drug treatments were started on the next day. […] The WAY 100635 antagonist compound was used simultaneously with buspirone or serotonin in the blocking experiments. Positive and negative control cultures were those treated with BDNF and FGF alone, respectively.
# Cells were treated with the designated concentrations of drugs or combinations thereof, daily, and were fed every alternate day with fresh medium. Experiments were maintained for about 6–10 days in most cases.
# [1] = TuJ-1 staining, listed as Buspirone
smiles,measurement,setting,value
"O=C1CC2(CCCC2)CC(=O)N1CCCCN1CCN(c2ncccn2)CC1 [buspirone, 8-[4-[4-(2-pyrimidinyl)-1-piperazinyl]butyl]-8-azaspiro[4,5]decane-7,9-dione]",Total No. of Cells,,1168 and 1228
same,% Fluorescent Cells,TuJ-1 staining,significant neuronal differentiation
same,% Fluorescent Cells,[1],27.27% and 20.15%
same,No. Fluorescent Cells,[1],320 and 260
